The values that follow come from patent US9713615B2, “Tetrahydroisoquinolin-2-yl-(quinazolin-4-yl)methanone compounds” (Rexahn Pharmaceuticals, Inc., priority 2013, dated 2017).

Read-outs that look alike come from different tables or passages of the source.

The term IC50 denotes the concentration needed to halve the response being measured.

Holding throughout (format): cell-based, Human
In assay [1] the test system is MDA-MB-231 (breast). As to the kind of experiment: SRB growth inhibition assay, MDA-MB-231. The settings on record: read-out: Inhibition of cell growth (IC50, μM) MDA-MB-231. The source says:
(§1) Cancer cells used in this study to determine the effect of tetrahydroisoquinolin-2-yl-(quinazolin-4-yl)methanone compounds were obtained from the following sources: Human OVCAR-3 (ovary), SK-MEL-28 (melanoma), MDA-MB-231 (breast), HeLa (cervix), PC3 (prostate), HepG2 (liver), A549 (lung), Caki-1 (kidney), HCT116 (colon) and PANC-1 (pancreas) from the American Type Culture Collection (ATCC) (Manassas, Va.); U251 (brain) from Riken (Japan); MKN-45 (stomach) from DSMZ (Germany). All cell lines except MDA-MB-231, HCT116, Caki-1 and PANC-1 were grown in RPMI1640 medium (Invitrogen, Carlsbad, Calif.) supplemented with 10% fetal bovine serum (“FBS”), 1 mM sodium pyruvate, 10 mM HEPES and 100 U/ml penicillin and 100 μg/ml streptomycin (“P/S”). MDA-MB-231, HCT116, Caki-1 and PANC-1 cells were maintained in Dulbecco's modified Eagle's medium (“DMEM”, Invitrogen) supplemented with 10% FBS, P/S, 10 mM HEPES and 2 mM L-glutamine. All cells were incubated at 37° C. under humidified 5% CO2.
(§2) The growth inhibition of the tetrahydroisoquinolin-2-yl-(quinazolin-4-yl)methanone compounds against a variety of human tumor cells was evaluated to study the relative importance of particular substituent groups on the compounds. The tetrahydroisoquinolin-2-yl-(quinazolin-4-yl)methanone compounds, prepared as described above, were tested with DMSO as a control.
(§3) The growth inhibition assay of representative tetrahydroisoquinolin-2-yl-(quinazolin-4-yl)methanone derivatives against human tumor cell lines was performed using the Sulforhodamine B (“SRB”) method (Skehan et al., J. National Cancer Institute, 82: 1107-1112 (1990)). Briefly, exponentially growing tumor cells were seeded into a 96-well plate at a density of 2-3×10^3 cells/well and treated with tetrahydroisoquinolin-2-yl-(quinazolin-4-yl)methanone compounds the next day. Triplicate wells were used for each treatment. The cells were incubated with the various compounds for 96 hours at 37° C. in a humidified 5% CO2 atmosphere. After 96-hour incubation, cells were fixed with 10% trichloroacetic acid (“TCA”), incubated for 1 hour at 4° C., and washed 3 times with tap water. Subsequently, cells were stained with 0.4% sulforhodamine B in 1% acetic acid for 30 minutes, washed 4 times with 1% acetic acid, and air-dried again After 5 minutes agitation in 10 mM Tris solution, the absorbance of each well was measured at 530 nm using Benchmark Plus Microplate reader (Bio-Rad Laboratories, Hercules, Calif.).
(§4) To translate the OD530 values into the number of live cells in each well, the OD530 values were compared to those on standard OD530-versus-cell number curves generated for each cell line. The percent survival was calculated using the formula: % Survival=live cell number [test]/live cell number [control]×100
(§5) The IC50 values were calculated by non-linear regression analysis.
(§6) The compounds were screened against at […] including PANC-1, MDA-MB-231, HCT116 and Caki-1, at approximately 1 μM concentration. The inhibition of cell growth (IC50, μM) of some tetrahydroisoquinolin-2-yl-(quinazolin-4-yl)methanone compounds are shown in Table 2.

The subject of assay [2] is Caki-1 (kidney). As to the kind of experiment: SRB growth inhibition assay, Caki-1. The settings on record: read-out: Inhibition of cell growth (IC50, μM) Caki-1.
Description: as §1, §2, §3, §4, §5, §6

Assay [3] has as its system HCT116 (colon). As to the kind of experiment: SRB growth inhibition assay, HCT116. To be noted: read-out: Inhibition of cell growth (IC50, μM) HCT116.
Description: as §1, §2, §3, §4, §5, §6

Assay [4] deals with PANC-1 (pancreas). As to the kind of experiment: SRB growth inhibition assay, PANC-1. To be noted: read-out: Inhibition of cell growth (IC50, μM) Panc-1.
Description: as §1, §2, §3, §4, §5, §6

The mark [5] stands for this setting: Homo sapiens, MDA-MB-231, 96 hours incubation.
Where [6] appears, read: Homo sapiens, CAKI-1, 96 hours incubation.
[7] abbreviates: Homo sapiens, HCT-116, 96 hours incubation.
[8] abbreviates: Homo sapiens, PANC-1, 96 hours incubation.

Take “2-[[2-(3-fluorophenyl)phenyl)quinazolin-4-yl]carbonyl]-5-hydroxy-6-methyl-1,2,3,4-tetrahydroisoquinoline [Compound 46]”: the IC50 in assay [1] (96 hours incubation) was 0.58 µM; in assay [2] (96 hours incubation) it was 0.52 µM; in assay [3] (96 hours incubation), 0.54 µM; in assay [4] (96 hours incubation), 0.51 µM.

On to `COc1ccc2c(c1OC)CCN(C(=O)c1nc(-c3ccc(F)cc3)nc3ccccc13)C2` [Compound 3, 2-[[2-(4-fluorophenyl)quinazolin-4-yl]carbonyl]-5,6-dimethoxy-1,2,3,4-tetrahydroisoquinoline], for which the IC50 in assay [1] (setting [5]) amounted to 1.2 µM; in assay [2] (setting [6]) it was 1.1 µM; in assay [3] (setting [7]), 1.39 µM; in assay [4] (setting [8]), 1.45 µM.

Turning to `Cc1ccc2c(c1O)CCN(C(=O)c1nc(-c3ccc(F)cc3)nc3ccccc13)C2` [Compound 5, 2-[[2-(4-fluorophenyl)quinazolin-4-yl]carbonyl]-5-hydroxy-6-methyl-1,2,3,4-tetrahydroisoquinoline], the IC50 stood at 0.38 µM in assay [1] (setting [5]), 0.36 µM in assay [2] (setting [6]), 0.47 µM in assay [3] (setting [7]) and 0.4 µM in assay [4] (setting [8]).

In the case of `COc1ccc2c(c1O)CCN(C(=O)c1nc(-c3ccc(C)cc3)nc3ccccc13)C2` [Compound 12, 2-[[2-(4-methylphenyl)quinazolin-4-yl]carbonyl]-5-hydroxy-6-methoxy-1,2,3,4-tetrahydroisoquinoline], the IC50 amounted to 0.23 µM in assay [1] (setting [5]), 0.2 µM in assay [2] (setting [6]), 0.29 µM in assay [3] (setting [7]) and 0.18 µM in assay [4] (setting [8]).

Turning to `Cc1ccc(-c2nc(C(=O)N3CCc4c(ccc(C)c4O)C3)c3ccccc3n2)cc1` [Compound 16, 2-[[2-(4-methylphenyl)quinazolin-4-yl]carbonyl]-5-hydroxy-6-methyl-1,2,3,4-tetrahydroisoquinoline], the IC50 amounted to 1.5 µM in assay [1] (setting [5]), 1.61 µM in assay [2] (setting [6]), 2.05 µM in assay [3] (setting [7]) and 1.72 µM in assay [4] (setting [8]).

On to `COc1ccc2c(c1OC)CCN(C(=O)c1nc(-c3ccccc3)nc3ccccc13)C2` [Compound 19, 2-[[2-phenylquinazolin-4-yl]carbonyl]-5,6-dimethoxy-1,2,3,4-tetrahydroisoquinoline], for which the IC50 in assay [1] (setting [5]) was found to be 0.84 µM; in assay [2] (setting [6]), 0.85 µM; in assay [3] (setting [7]) it was 1.08 µM; in assay [4] (setting [8]), 1.06 µM.

Consider `Cc1ccc2c(c1O)CCN(C(=O)c1nc(-c3ccccc3)nc3ccccc13)C2` [Compound 21, 2-[[2-phenylquinazolin-4-yl]carbonyl]-5-hydroxy-6-methyl-1,2,3,4-tetrahydroisoquinoline], for which the IC50 in assay [1] (setting [5]) is 0.27 µM; in assay [2] (setting [6]), 0.23 µM; in assay [3] (setting [7]) it was 0.34 µM; in assay [4] (setting [8]) it was 0.22 µM.

Regarding `COc1ccc(-c2nc(C(=O)N3CCc4c(ccc(OC)c4OC)C3)c3ccccc3n2)cc1` [Compound 24, 2-[[2-(4-methoxylphenyl)quinazolin-4-yl]carbonyl]-5,6-dimethoxy-1,2,3,4-tetrahydroisoquinoline], the IC50 is 0.41 µM in assay [1] (setting [5]), 0.38 µM in assay [2] (setting [6]), 0.49 µM in assay [3] (setting [7]) and 0.46 µM in assay [4] (setting [8]).

In the case of `COc1ccc(-c2nc(C(=O)N3CCc4c(ccc(N(C)C)c4O)C3)c3ccccc3n2)cc1` [Compound 25, 2-[[2-(4-methoxylphenyl)quinazolin-4-yl]carbonyl]-5-hydroxy-6-dimethylamino-1,2,3,4-tetrahydroisoquinoline], the IC50 in assay [1] (setting [5]) turned out to be 2.53 µM; in assay [4] (setting [8]), 1.77 µM.

As for `COc1ccc(-c2nc(C(=O)N3CCc4c(ccc(C)c4O)C3)c3ccccc3n2)cc1` [Compound 26, 2-[[2-(4-methoxylphenyl)quinazolin-4-yl]carbonyl]-5-hydroxy-6-methyl-1,2,3,4-tetrahydroisoquinoline], the IC50 in assay [1] (setting [5]) amounted to 0.19 µM; in assay [2] (setting [6]), 0.16 µM; in assay [3] (setting [7]) it was 0.22 µM; in assay [4] (setting [8]) it was 0.18 µM.

`COc1ccc2c(c1O)CCN(C(=O)c1nc(-c3ccc(Cl)cc3)nc3ccccc13)C2` [Compound 27, 2-[[2-(4-chlorophenyl)quinazolin-4-yl]carbonyl]-5-hydroxy-6-methoxy-1,2,3,4-tetrahydroisoquinoline]: the IC50 turned out to be 0.54 µM in assay [1] (setting [5]), 0.46 µM in assay [2] (setting [6]), 0.5 µM in assay [3] (setting [7]) and 0.42 µM in assay [4] (setting [8]).

Consider `Cc1ccc2c(c1O)CCN(C(=O)c1nc(-c3ccc(Cl)cc3)nc3ccccc13)C2` [Compound 31, 2-[[2-(4-chlorophenyl)quinazolin-4-yl]carbonyl]-5-hydroxy-6-methyl-1,2,3,4-tetrahydroisoquinoline], for which the IC50 in assay [1] (setting [5]) was determined as 0.63 µM; in assay [2] (setting [6]) it was 0.64 µM; in assay [3] (setting [7]) it was 0.91 µM; in assay [4] (setting [8]) it was 0.85 µM.

As for `COc1ccc2c(c1O)CCN(C(=O)c1nc(-c3ccc(N(C)C)cc3)nc3ccccc13)C2` [Compound 32, 2-[[2-(4-(dimethylamino)phenyl)quinazolin-4-yl]carbonyl]-5-hydroxy-6-methoxy-1,2,3,4-tetrahydroisoquinoline], the IC50 in assay [1] (setting [5]) is 0.43 µM; in assay [2] (setting [6]), 0.37 µM; in assay [3] (setting [7]), 0.52 µM; in assay [4] (setting [8]), 0.47 µM.

Regarding `COc1ccc2c(c1O)CCN(C(=O)c1nc(-c3ccc(C(F)(F)F)cc3)nc3ccccc13)C2` [Compound 37, 2-[[2-(4-(trifluoromethyl)phenyl)quinazolin-4-yl]carbonyl]-5-hydroxy-6-methoxy-1,2,3,4-tetrahydroisoquinoline], the IC50 in assay [1] (setting [5]) is 0.42 µM; in assay [2] (setting [6]) it was 0.36 µM; in assay [3] (setting [7]) it was 0.55 µM; in assay [4] (setting [8]), 0.43 µM.

On to `COc1cccc(-c2nc(C(=O)N3CCc4c(ccc(OC)c4O)C3)c3ccccc3n2)c1` [Compound 47, 2-[[2-(3-methoxylphenyl)quinazolin-4-yl]carbonyl]-5-hydroxy-6-methoxy-1,2,3,4-tetrahydroisoquinoline], for which the IC50 in assay [1] (setting [5]) worked out at 0.49 µM; in assay [2] (setting [6]), 0.59 µM; in assay [3] (setting [7]) it was 0.81 µM; in assay [4] (setting [8]), 0.5 µM.

Take `COc1ccc2c(c1OC)CCN(C(=O)c1nc(-c3cccc(C(F)(F)F)c3)nc3ccccc13)C2` [Compound 54, 2-[[2-(3-(trifluoromethyl)phenyl)quinazolin-4-yl]carbonyl]-5,6-dimethoxy-1,2,3,4-tetrahydroisoquinoline]: the figures for the IC50 in assay [1] (setting [5]) and in assay [3] (setting [7]) were 3.44 µM and 1.65 µM, respectively.

As to `COc1ccc2c(c1O)CCN(C(=O)c1nc(-c3ccc([N+](=O)[O-])cc3)nc3ccccc13)C2` [Compound 95, 2-[[2-(4-nitrophenyl)quinazolin-4-yl]carbonyl]-5-hydroxy-6-methoxy-1,2,3,4-tetrahydroisoquinoline], the IC50 in assay [1] (setting [5]) came out at 0.11 µM; in assay [3] (setting [7]) it was 0.16 µM; in assay [4] (setting [8]) it was 0.2 µM.

For `COc1ccc2c(c1O)CCN(C(=O)c1nc(-c3ccc(N)cc3)nc3ccccc13)C2` [Compound 96, 2-[[2-(4-aminophenyl)quinazolin-4-yl]carbonyl]-5-hydroxy-6-methoxy-1,2,3,4-tetrahydroisoquinoline], the IC50 in assay [1] (setting [5]) was found to be 0.23 µM; in assay [3] (setting [7]), 0.36 µM; in assay [4] (setting [8]), 0.28 µM.
